Results reported in ChEMBL document CHEMBL1157281, “Antineoplastic agents. 400. Synthesis of the Indian Ocean marine sponge cyclic heptapeptide phakellistatin 2” (1999).
In brackets after ≈: the same amount, converted by molar mass. Residues, ends and D or L forms follow the SMILES beside them.

Test system: P388
Experiment: Growth inhibition of mouse P388 cells
Format: functional
Settings: read-out: ED50 (the source's name)

EC50 [µg/mL]	SMILES
0.34 (≈ 0.411 µM)	CC[C@H](C)[C@@H]1NC(=O)[C@@H]2CCCN2C(=O)[C@H](Cc2ccccc2)NC(=O)[C@@H]2CCCN2C(=O)[C@H](Cc2ccc(O)cc2)NC(=O)[C@@H]2CCCN2C(=O)[C@H]([C@@H](C)CC)NC1=O [PHAKELLISTATIN 2] (cyclo(FPIIPYP))
24	CC[C@H](C)[C@@H]1NC(=O)[C@@H]2CCCN2C(=O)[C@H](Cc2ccccc2)NC(=O)[C@@H]2CCCN2C(=O)[C@H](Cc2ccc(O)cc2)NC(=O)[C@@H]2CCCN2C(=O)[C@H]([C@@H](C)CC)NC1=O.Cl [PHAKELLISTATIN 2 (SYNTHETIC)] (cyclo(FPIIPYP))
